Experimental data published in article PMC9775004 (Biosensors, 2022).
Where two headings read alike, the source gives them in different places.

How the values were obtained:
FILLac10N0C = assay: FRET emission ratio (Venus to mTFP) response of purified FILLac10N0C; assay type: binding, Salmonella enterica serovar Typhimurium LT2
Procedure: The FILLac expression vectors were constructed based on the plasmid pETDuet-mTFP-Venus carrying mTFP gene and Venus gene. The original STlldR gene, its truncated variants or variants with artificial linkers were inserted between the mTFP gene and Venus gene by T5 exonuclease DNA assembly method (TEDA) to construct pETDuet-FILLac0N0C and its variants.
The purified FILLac and different compounds were diluted with 50 mM Tris-HCl buffer (pH 7.4), and then mixed at a volume ratio of 3:1 into a black 96-well microplate for a total detection volume of 100 μL. The final concentration of FILLac in the reaction mixture was 1 μM. The fluorescence intensities of FILLac at 485 nm (mTFP) and 528 nm (Venus) were detected by using an EnSight multifunctional microplate detector (PerkinElmer, USA) with excitation at 430 nm. […] The maximum ratio changes (ΔRmax) were calculated according to the following formula:(2) ΔRmax=−Rmax−Rmin/Rmin. […]

EcLldR = molecular target: T1, EcLldR (Escherichia coli, UniProt P0ACL7); assay: Fluorescence-based thermal shift (FTS) assay with EcLldR; assay type: binding, E. coli MG1655; conditions: 1 mM compound, 10 μM LldR
T1 construct: His tag (inferred from pET28a and HisTrap purification); made in house; host or cells: E. coli BL21 (DE3)
T1 sequence (P0ACL7 whole entry): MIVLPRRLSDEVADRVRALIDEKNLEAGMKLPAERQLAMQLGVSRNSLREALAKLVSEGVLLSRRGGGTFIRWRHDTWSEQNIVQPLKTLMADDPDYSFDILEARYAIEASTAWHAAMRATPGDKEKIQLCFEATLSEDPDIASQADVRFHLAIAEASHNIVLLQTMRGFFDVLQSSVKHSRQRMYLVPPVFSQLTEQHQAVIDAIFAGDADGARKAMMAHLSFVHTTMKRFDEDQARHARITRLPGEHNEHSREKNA
Procedure: (§1) The gene STlldR encoding LldR of S. Typhimurium LT2 (STLldR) was amplified from genome of the strain, and then ligated into the plasmid pET28a to construct pET28a-STlldR. The recombinant plasmid pET28a-STlldR was transformed into E. coli BL21 (DE3) for STLldR expression. The expression strain was cultured in LB medium at 37 °C until an optical density at 600 nm (OD600) of 0.6 and induced with 1 mM isopropyl-β-D-thiogalactoside (IPTG) at 16 °C for 12 h. […] The purified STLldR was analyzed by 13% sodium dodecyl sulfate-polyacrylamide gel electrophoresis (SDS-PAGE). The protein concentration was determined using a Bradford protein assay kit (Sangon, Shanghai, China), and stored at –80 °C. […]
(§2) FTS assays were performed using a LightCycler 480 system (Roche, Indianapolis, IN, USA) with the filter set to excitation wavelength 465 nm and emission wavelength 580 nm for SYPRO orange. […] The melting temperature (Tm) of LldR was calculated from the negative first derivative value of the raw fluorescence data. Thermal shift temperature (ΔTm) was calculated by subtracting the Tm of the control from the Tm of LldR with the addition of different compounds. […]

PaLldR = assay: Fluorescence-based thermal shift (FTS) assay with PaLldR; assay type: binding, Pseudomonas aeruginosa PAO1; conditions: 1 mM compound, 10 μM LldR
Procedure: as §1, §2

PfLldR = assay: Fluorescence-based thermal shift (FTS) assay with PfLldR; assay type: binding, P. fluorescens A506; conditions: 1 mM compound, 10 μM LldR
Procedure: as §1, §2

O=C(O)CCC(=O)C(=O)O [2-ketoglutarate]
fluorescence emission ratio change of FILLac10N0C (specificity analysis) (FILLac10N0C; 50 μM compound): did not change the emission ratio

[Ca+2] [Ca^2+]
fluorescence emission ratio change of FILLac10N0C (specificity analysis) (FILLac10N0C; 50 μM compound): did not change the emission ratio

O=C(O)CC[C@@H](O)C(=O)O [D-2-hydroxyglutarate]
fluorescence emission ratio change of FILLac10N0C (specificity analysis) (FILLac10N0C; 50 μM compound): did not change the emission ratio

C[C@@H](O)C(=O)O [D-lactate]
change in Tm (ΔTm) of EcLldR (EcLldR): significant changes in Tm
change in Tm (ΔTm) of PaLldR (PaLldR): significant changes in Tm
change in Tm (ΔTm) of PfLldR (PfLldR): significant changes in Tm

O=C(O)C[C@@H](O)C(=O)O [D-malate]
fluorescence emission ratio change of FILLac10N0C (specificity analysis) (FILLac10N0C; 50 μM compound): did not change the emission ratio

[K+] [K^+]
fluorescence emission ratio change of FILLac10N0C (specificity analysis) (FILLac10N0C): did not change the emission ratio

O=C(O)CC[C@H](O)C(=O)O [L-2-hydroxyglutarate]
fluorescence emission ratio change of FILLac10N0C (specificity analysis) (FILLac10N0C; 50 μM compound): did not change the emission ratio

N[C@@H](CCC(=O)O)C(=O)O [L-glutamate]
fluorescence emission ratio change of FILLac10N0C (specificity analysis) (FILLac10N0C; 50 μM compound): did not change the emission ratio

C[C@H](O)C(=O)O [L-lactate]
change in Tm (ΔTm) of EcLldR (EcLldR): significant changes in Tm
change in Tm (ΔTm) of PaLldR (PaLldR): significant changes in Tm
change in Tm (ΔTm) of PfLldR (PfLldR): significant changes in Tm

O=C(O)C[C@H](O)C(=O)O [L-malate]
fluorescence emission ratio change of FILLac10N0C (specificity analysis) (FILLac10N0C; 50 μM compound): did not change the emission ratio

[Mg+2] [Mg^2+]
fluorescence emission ratio change of FILLac10N0C (specificity analysis) (FILLac10N0C; 50 μM compound): did not change the emission ratio

N [NH4^+]
fluorescence emission ratio change of FILLac10N0C (specificity analysis) (FILLac10N0C; 50 μM compound): did not change the emission ratio

[Na+] [Na^+]
fluorescence emission ratio change of FILLac10N0C (specificity analysis) (FILLac10N0C; 50 μM compound): did not change the emission ratio

CC(=O)O [acetate]
fluorescence emission ratio change of FILLac10N0C (specificity analysis) (FILLac10N0C; 50 μM compound): did not change the emission ratio

O=C(O)/C=C(/CC(=O)O)C(=O)O [cis-aconitate]
fluorescence emission ratio change of FILLac10N0C (specificity analysis) (FILLac10N0C; 50 μM compound): did not change the emission ratio

O=C(O)CC(O)(CC(=O)O)C(=O)O [citrate]
fluorescence emission ratio change of FILLac10N0C (specificity analysis) (FILLac10N0C; 50 μM compound): did not change the emission ratio

O=C(CO)[C@@H](O)[C@H](O)[C@H](O)CO [fructose]
fluorescence emission ratio change of FILLac10N0C (specificity analysis) (FILLac10N0C; 50 μM compound): did not change the emission ratio

O=C(O)/C=C/C(=O)O [fumarate]
fluorescence emission ratio change of FILLac10N0C (specificity analysis) (FILLac10N0C; 50 μM compound): did not change the emission ratio

OC[C@H]1OC(O)[C@H](O)[C@@H](O)[C@@H]1O (stereo partly shown) [glucose]
fluorescence emission ratio change of FILLac10N0C (specificity analysis) (FILLac10N0C; 50 μM compound): did not change the emission ratio

O=CC(=O)O [glyoxylate]
fluorescence emission ratio change of FILLac10N0C (specificity analysis) (FILLac10N0C; 50 μM compound): did not change the emission ratio

O=C(O)CC(=O)C(=O)O [oxaloacetate]
fluorescence emission ratio change of FILLac10N0C (specificity analysis) (FILLac10N0C; 50 μM compound): did not change the emission ratio

CC(=O)C(=O)O [pyruvate]
fluorescence emission ratio change of FILLac10N0C (specificity analysis) (FILLac10N0C; 50 μM compound): did not change the emission ratio
effect on detection of L-lactate by FILLac10N0C (FILLac10N0C; 50 μM of the compound present in the L-lactate dose-response): not affected

O=C(O)CCC(=O)O [succinate]
fluorescence emission ratio change of FILLac10N0C (specificity analysis) (FILLac10N0C): did not change the emission ratio
